Values joined by “and” are separate entries in the source; they are usually repeats but may differ in a detail not shown here. Equal values may be shown once.
Test system: LNCaP tumor-bearing mice
Assay: Ex vivo biodistribution of 68Ga-labeled ligands in LNCaP tumor-bearing NSG mice
[1] = 1 h post-injection, listed as [68Ga]Ga-HTK03189B
[2] = 1 h post-injection, listed as [68Ga]Ga-HTK03161
[3] = 1 h blocked, co-injected with DCFPyL (0.5 mg)
[4] = 1 h post-injection, listed as [68Ga]Ga-HTK03149
[5] = co-injection of DCFPyL (0.5 mg), 1 h post-injection

O=C([O-])CN1CCN(CC(=O)[O-])CCN(CC(=O)NCC2CCC(C(=O)NC(Cc3c4ccccc4cc4ccccc34)C(=O)NCCCCC(NC(=O)NC(CCCCC(=O)O)C(=O)O)C(=O)O)CC2)CCN(CC(=O)[O-])CC1.[68Ga+3] (single isomer, unassigned) [[^68Ga]Ga-HTK03189B]
Tumor uptake (1 h post-injection): 0.67±0.15 %IA/g | Adrenal glands uptake [1]: 0.37 ± 0.15 %IA/g | Blood uptake [1]: 1.06 ± 0.25 %IA/g | Blood:Salivary gland uptake ratio [1]: 4.86 ± 1.16 | Bone uptake [1]: 0.10 ± 0.02 %IA/g | Brain uptake [1]: 0.03 ± 0.00 %IA/g | Fat uptake [1]: 0.17 ± 0.10 %IA/g | Heart uptake [1]: 0.30 ± 0.06 %IA/g | Intestines uptake [1]: 0.28 ± 0.07 %IA/g | Kidneys uptake [1]: 2.13 ± 0.45 %IA/g | Lacrimal glands uptake [1]: 0.13 ± 0.04 %IA/g | Liver uptake [1]: 0.39 ± 0.08 %IA/g | Lungs uptake [1]: 0.82 ± 0.22 %IA/g | Muscle uptake [1]: 0.12 ± 0.03 %IA/g | Pancreas uptake [1]: 0.18 ± 0.05 %IA/g | Salivary glands uptake [1]: 0.22 ± 0.04 %IA/g | Spleen uptake [1]: 0.20 ± 0.05 %IA/g | Stomach uptake [1]: 0.11 ± 0.03 %IA/g | Testes uptake [1]: 0.26 ± 0.05 %IA/g | Thyroid uptake [1]: 0.29 ± 0.08 %IA/g | Tumor uptake [1]: 0.67 ± 0.15 %IA/g | Tumor:Blood uptake ratio [1]: 0.65 ± 0.15 | Tumor:Kidney uptake ratio [1]: 0.32 ± 0.05 | Tumor:Muscle uptake ratio [1]: 5.68 ± 1.12 | Tumor:Salivary gland uptake ratio [1]: 3.08 ± 0.53

O=C([O-])CN1CCN(CC(=O)[O-])CCN(CC(=O)NCC2CCC(C(=O)NC(Cc3c4ccccc4cc4ccccc34)C(=O)NCCCCC(NC(=O)NC(CC(=O)O)C(=O)O)C(=O)O)CC2)CCN(CC(=O)[O-])CC1.[68Ga+3] (stereo not shown) [[^68Ga]Ga-HTK03161]
Adrenal glands uptake (1 h post-injection): 0.41 ± 0.07 %IA/g | Blood uptake (1 h post-injection): 1.13 ± 0.19 %IA/g | Blood:Salivary gland uptake ratio (1 h post-injection): 5.08±0.62 | Bone uptake (1 h post-injection): 0.11 ± 0.02 %IA/g | Brain uptake (1 h post-injection): 0.02 ± 0.00 %IA/g | Fat uptake (1 h post-injection): 0.15 ± 0.04 %IA/g | Heart uptake (1 h post-injection): 0.32 ± 0.05 %IA/g | Intestines uptake (1 h post-injection): 0.31 ± 0.09 %IA/g | Kidneys uptake (1 h post-injection): 4.41±1.26 %IA/g | Lacrimal glands uptake (1 h post-injection): 0.12 ± 0.06 %IA/g | Liver uptake (1 h post-injection): 0.28 ± 0.05 %IA/g | Lungs uptake (1 h post-injection): 0.75 ± 0.13 %IA/g | Muscle uptake (1 h post-injection): 0.15 ± 0.04 %IA/g | Pancreas uptake (1 h post-injection): 0.18 ± 0.03 %IA/g | Salivary glands uptake (1 h post-injection): 0.23±0.05 %IA/g | Spleen uptake (1 h post-injection): 0.27 ± 0.06 %IA/g | Stomach uptake (1 h post-injection): 0.10 ± 0.04 %IA/g | Testes uptake (1 h post-injection): 0.54 ± 0.51 %IA/g | Thyroid uptake (1 h post-injection): 0.29 ± 0.05 %IA/g | Tumor uptake (1 h post-injection): 12.7±1.91 %IA/g | Tumor:Blood uptake ratio (1 h post-injection): 11.4 ± 1.73 | Tumor:Kidney uptake ratio (1 h post-injection): 3.03 ± 0.84 | Tumor:Muscle uptake ratio (1 h post-injection): 89.4 ± 36.1 | Tumor:Salivary gland uptake ratio (1 h post-injection): 57.2 ± 7.11 | Kidneys uptake [2]: 4.41 ± 1.26 %IA/g | Salivary glands uptake [2]: 0.23 ± 0.05 %IA/g | Tumor uptake [2]: 12.7 ± 1.91 %IA/g

O=C([O-])CN1CCN(CC(=O)[O-])CCN(CC(=O)NCC2CCC(C(=O)NC(Cc3c4ccccc4cc4ccccc34)C(=O)NCCCCC(NC(=O)NC(CCCC(=O)O)C(=O)O)C(=O)O)CC2)CCN(CC(=O)[O-])CC1.[68Ga+3] (stereo not shown) [[^68Ga]Ga-HTK03149]
Adrenal glands uptake [3]: 0.22 ± 0.03 %IA/g | Blood uptake [3]: 0.67 ± 0.04 %IA/g | Blood:Salivary gland uptake ratio [3]: 4.80 ± 0.54 | Bone uptake [3]: 0.07 ± 0.01 %IA/g | Brain uptake [3]: 0.02 ± 0.00 %IA/g | Fat uptake [3]: 0.08 ± 0.01 %IA/g | Heart uptake [3]: 0.19 ± 0.01 %IA/g | Intestines uptake [3]: 0.21 ± 0.04 %IA/g | Kidneys uptake [3]: 1.93 ± 0.39 %IA/g | Lacrimal glands uptake [3]: 0.14 ± 0.08 %IA/g | Liver uptake [3]: 0.22 ± 0.03 %IA/g | Lungs uptake [3]: 0.49 ± 0.03 %IA/g | Muscle uptake [3]: 0.08 ± 0.01 %IA/g | Pancreas uptake [3]: 0.12 ± 0.01 %IA/g | Salivary glands uptake [3]: 0.14 ± 0.01 %IA/g | Spleen uptake [3]: 0.15 ± 0.04 %IA/g | Stomach uptake [3]: 0.04 ± 0.00 %IA/g | Testes uptake [3]: 0.19 ± 0.02 %IA/g | Thyroid uptake [3]: 0.18 ± 0.01 %IA/g | Tumor uptake [3]: 0.77 ± 0.06 %IA/g | Tumor:Blood uptake ratio [3]: 1.16 ± 0.13 | Tumor:Kidney uptake ratio [3]: 0.41 ± 0.09 | Tumor:Muscle uptake ratio [3]: 7.18 ± 3.58 | Tumor:Salivary gland uptake ratio [3]: 5.53 ± 0.39 | Adrenal glands uptake (1 h post-injection): 0.33 ± 0.11 %IA/g | Blood uptake (1 h post-injection): 0.70 ± 0.17 %IA/g | Blood:Salivary gland uptake ratio (1 h post-injection): 3.21±0.64 | Bone uptake (1 h post-injection): 0.11 ± 0.04 %IA/g | Brain uptake (1 h post-injection): 0.02 ± 0.00 %IA/g | Fat uptake (1 h post-injection): 0.17 ± 0.15 %IA/g | Heart uptake (1 h post-injection): 0.21 ± 0.03 %IA/g | Intestines uptake (1 h post-injection): 0.24 ± 0.05 %IA/g | Kidneys uptake (1 h post-injection): 4.15±1.46 %IA/g | Lacrimal glands uptake (1 h post-injection): 0.15 ± 0.09 %IA/g | Liver uptake (1 h post-injection): 0.25 ± 0.06 %IA/g | Lungs uptake (1 h post-injection): 0.53 ± 0.09 %IA/g | Muscle uptake (1 h post-injection): 0.11 ± 0.04 %IA/g | Pancreas uptake (1 h post-injection): 0.13 ± 0.02 %IA/g | Salivary glands uptake (1 h post-injection): 0.22±0.06 %IA/g | Spleen uptake (1 h post-injection): 0.27 ± 0.05 %IA/g | Stomach uptake (1 h post-injection): 0.07 ± 0.01 %IA/g | Testes uptake (1 h post-injection): 0.23 ± 0.13 %IA/g | Thyroid uptake (1 h post-injection): 0.20 ± 0.05 %IA/g | Tumor uptake (1 h post-injection): 19.1±6.37 %IA/g | Tumor:Blood uptake ratio (1 h post-injection): 29.5±15.8 | Tumor:Kidney uptake ratio (1 h post-injection): 5.44±3.88 and > 5.0 | Tumor:Muscle uptake ratio (1 h post-injection): 185±79.6 | Tumor:Salivary gland uptake ratio (1 h post-injection): 97.3±59.2 | Kidneys uptake [4]: 4.15 ± 1.46 %IA/g | Salivary glands uptake [4]: 0.22 ± 0.06 %IA/g | Tumor uptake [4]: 19.1 ± 6.37 %IA/g | Reduction of average uptake in LNCaP tumor xenografts by blocking [5]: 96% | Reduction of average uptake in kidneys by blocking [5]: 53% | Reduction of average uptake in salivary glands by blocking [5]: 36%
